From paper PMC11154460, “Effects of Aqueous Boundary Layers and Paracellular Transport on the Efflux Ratio as a Measure of Active Transport Across Cell Layers” (Pharmaceutics, 2024)
Where two headings read alike, the source gives them in different places. One block for each compound: values may come before it.

Columns and labels:
human P-gp [1] = target: T1, human P-gp (Homo sapiens, UniProt P08183); conditions: MDCK-MDR1, pH 7.4
Protocol: (§1) As such, for this study, MDCK-II-MDR1 cells transfected with human MDR1 for P-gp expression were obtained from The Netherlands Cancer Institute (Amsterdam, The Netherlands).
(§2) For transport experiments, MDCK-MDR1 cells were used between passages 20 and 40. Cells were seeded onto 12-well PET inserts (CellQART, Northeim, Germany; pore size: 0.4 µm; filter thickness: 11.5 µm) at a density of 1.5 × 10^5 cells/insert. Inserts with a high porosity of 100 × 10^6 pores/cm ​^2 or low porosity of 2 × 10 ​^6 pores/cm ​^2 were used. After seeding, cells were maintained as described in Section 3.1.2 for 4 days to ensure confluent cell monolayer formation. The cell medium was exchanged one day before the transport experiments were performed. Prior to the transport experiments, the inserts were washed with Hank’s balanced salt solution (HBSS) to remove residual DMEM. […] For all other inserts, no inhibitor was used.
(§3) The apical-to-basolateral ( A→B direction) as well as the basolateral-to-apical ( B→A direction) transport rates of the test compounds were determined in duplicate with varying stirring and filter conditions. The three conditions tested were as follows: high-porosity filters, stirred (HPS); high-porosity filters, unstirred (HPU); and low-porosity filters, stirred (LPS). The transport buffer was HBSS with 25 mM HEPES at pH 7.4. Stock solutions were prepared in the transport buffer, and all solutions were pre-warmed to 37 °C. […] The pHs of the buffer and stock solutions prior to the experiment as well as the pHs of all samples after experiment completion were controlled with a rapid pH automated pH meter (Hudson Robotics, Inc., Springfield, NJ, USA). The pHs remained within a range of ±0.15.
(§4) Inserts were used in 12-well plates (TPP Techno Plastic Products AG, Trasadingen, Switzerland), the basolateral compartment volume was 1.6 mL, and the apical compartment volume was 0.5 mL. The transport experiments were initiated by replacing the HBSS with transport buffer and the test compound solution.
(§5) For measurement of transport in the A→B direction: Inserts were placed in 12-well plates containing transport buffer in the basolateral compartment, after which, the test compound solution was added to the apical compartment. At every sampling step, each insert was placed into a new well containing fresh, warmed assay buffer, and the old buffer was sampled. Sampling occurred at four consistent time intervals.
(§6) For measurement of transport in the B→A direction: Inserts were placed in 12-well plates containing the test compound solution in the basolateral compartment (donor), after which, transport buffer was added to the apical compartment. At each sampling time step, 300 μ L was sampled from the apical compartment (the maximum amount that could be removed without disturbing the cell layer) and replaced with an equal volume of warmed, fresh transport buffer. Sampling occurred at four consistent time intervals. Time intervals for sampling were determined uniquely for each compound and direction measured to ensure that sink conditions would be maintained throughout the experiment.

P-gp (MDR1) [2] = target: T2, P-gp (MDR1) (Homo sapiens, UniProt P08183); assay: in vitro; conditions: for efflux ratio: MDCK-MDR1, pH 7.4, ER (Papp,B→A over Papp,A→B); for efflux ratio / Papp A→B / Papp B→A: pH 7.4 ISO-pH, 12 μM (loperamide 10 μM); for Papp A→B: MDCK-MDR1, pH 7.4, Papp,A→B; for Papp A→B / Papp B→A: recovery-corrected mean ± SD; for Papp B→A: MDCK-MDR1, pH 7.4, Papp,B→A; for recovery: pH 7.4, Recovery, pH 7.4, MDCK-MDR1, 12 μM (loperamide 10 μM)
T2 sequence (P08183 whole entry): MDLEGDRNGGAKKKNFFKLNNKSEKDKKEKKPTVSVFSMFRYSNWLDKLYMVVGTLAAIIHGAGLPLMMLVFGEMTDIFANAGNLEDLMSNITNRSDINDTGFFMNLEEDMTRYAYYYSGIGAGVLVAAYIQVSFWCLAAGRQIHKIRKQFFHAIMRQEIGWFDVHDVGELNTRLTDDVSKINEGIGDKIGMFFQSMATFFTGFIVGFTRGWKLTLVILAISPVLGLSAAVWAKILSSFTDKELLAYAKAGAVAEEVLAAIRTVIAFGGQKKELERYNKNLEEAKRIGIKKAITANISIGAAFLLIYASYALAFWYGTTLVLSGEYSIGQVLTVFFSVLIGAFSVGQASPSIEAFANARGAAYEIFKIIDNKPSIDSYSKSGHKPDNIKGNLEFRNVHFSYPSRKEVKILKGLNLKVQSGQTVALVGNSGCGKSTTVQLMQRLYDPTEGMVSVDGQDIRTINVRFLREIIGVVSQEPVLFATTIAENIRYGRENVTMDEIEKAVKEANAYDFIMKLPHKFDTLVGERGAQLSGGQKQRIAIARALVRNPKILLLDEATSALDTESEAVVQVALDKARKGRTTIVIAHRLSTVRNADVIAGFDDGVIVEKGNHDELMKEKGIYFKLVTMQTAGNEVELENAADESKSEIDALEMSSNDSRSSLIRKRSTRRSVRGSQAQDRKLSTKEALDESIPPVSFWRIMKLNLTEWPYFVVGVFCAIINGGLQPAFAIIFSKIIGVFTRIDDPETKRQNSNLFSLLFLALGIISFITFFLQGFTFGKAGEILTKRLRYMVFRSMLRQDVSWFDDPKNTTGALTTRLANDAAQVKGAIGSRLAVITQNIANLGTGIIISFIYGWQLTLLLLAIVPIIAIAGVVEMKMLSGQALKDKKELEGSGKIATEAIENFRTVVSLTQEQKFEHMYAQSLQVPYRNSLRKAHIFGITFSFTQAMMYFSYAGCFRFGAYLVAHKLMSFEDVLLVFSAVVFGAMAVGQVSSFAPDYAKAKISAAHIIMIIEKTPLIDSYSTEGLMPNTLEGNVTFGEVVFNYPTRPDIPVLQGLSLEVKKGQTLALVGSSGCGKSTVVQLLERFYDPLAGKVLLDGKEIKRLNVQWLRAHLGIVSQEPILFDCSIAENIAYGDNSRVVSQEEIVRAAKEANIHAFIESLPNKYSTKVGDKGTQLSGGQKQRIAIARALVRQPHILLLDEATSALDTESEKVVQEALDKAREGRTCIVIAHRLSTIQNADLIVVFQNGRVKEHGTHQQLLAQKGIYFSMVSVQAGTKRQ
Protocol: as §1, §2, §3, §4, §5, §6

P-gp (MDR1) [3] = target: T2, P-gp (MDR1); assay: Bi-directional transport (monolayer efflux) study across MDCK-MDR1 cell monolayers; conditions: human, HPS conditions; for Papp A→B / Papp B→A: recovery-corrected mean ± SD, n = 3; for recovery: MDCK-MDR1 cell monolayers
Protocol: as §1, §2, §3, §4, §5, §6

human P-gp [4] = target: T1, human P-gp; assay: as above; conditions: for ER: HPS conditions
Protocol: as §1, §2, §3, §4, §5, §6

[5] = HPS: high-porosity filter, stirred
[6] = HPU: high-porosity filter, unstirred
[7] = LPS: low-porosity filter, stirred

T1 sequence (P08183 whole entry): as above

Compound: CN(C)C(=O)C(CCN1CCC(O)(c2ccc(Cl)cc2)CC1)(c1ccccc1)c1ccccc1 [Loperamide, loperamide]
- mean ERs (human P-gp [1]): greater than two
- efflux ratio (P-gp (MDR1) [2]; [5]): 2.7 ± 0.73
- efflux ratio (P-gp (MDR1) [2]; [6]): 2.8 ± 0.87
- efflux ratio (P-gp (MDR1) [2]; [7]): 3.2 ± 0.91
- Papp A→B (P-gp (MDR1) [2]; [5]): 46.7 ± 5.03 ×10⁻⁶ cm/s
- Papp A→B (P-gp (MDR1) [2]; [6]): 9.8 ± 2.84 ×10⁻⁶ cm/s
- Papp A→B (P-gp (MDR1) [2]; [7]): 5.65 ± 0.42 ×10⁻⁶ cm/s
- Papp B→A (P-gp (MDR1) [2]; [5]): 126 ± 27.8 ×10⁻⁶ cm/s
- Papp B→A (P-gp (MDR1) [2]; [6]): 29.2 ± 3.31 ×10⁻⁶ cm/s
- Papp B→A (P-gp (MDR1) [2]; [7]): 15.9 ± 4.24 ×10⁻⁶ cm/s
- recovery (P-gp (MDR1) [2]; [5]): 75 to 88.1%
- recovery (P-gp (MDR1) [2]; [6]): 62.3 to 81.3%
- recovery (P-gp (MDR1) [2]; [7]): 69.2 to 86.1%

- efflux ratio (P-gp (MDR1) [3]; MDCK-MDR1, pH 6, ER, pHext 6 (ISO-pH)): 1.6
- Papp A→B (P-gp (MDR1) [3]; MDCK-MDR1, pH 6, Papp,A→B, pHext 6 (ISO-pH)): 0.14 ± 0.04 ×10⁻⁶ cm/s
- Papp B→A (P-gp (MDR1) [3]; MDCK-MDR1, pH 6, Papp,B→A, pHext 6 (ISO-pH)): 0.23 ± 0.08 ×10⁻⁶ cm/s
- Papp A→B (P-gp (MDR1) [3]; MDCK-MDR1, pH 7, Papp,A→B, pHext 7 (ISO-pH)): 0.12 ± 0.03 ×10⁻⁶ cm/s
- Papp B→A (P-gp (MDR1) [3]; MDCK-MDR1, pH 7, Papp,B→A, pHext 7 (ISO-pH)): 0.78 ± 0.36 ×10⁻⁶ cm/s
- recovery (P-gp (MDR1) [3]; pH 6, Recovery, pHext 6 (ISO-pH)): 89.3 to 95.3%
- recovery (P-gp (MDR1) [3]; pH 7, Recovery, pHext 7 (ISO-pH)): 87.8 to 93.1%
- ER (human P-gp [4]; pHext 6 (ISO-pH)): one
- ER (human P-gp [4]; pHext 7 (ISO-pH)): 6.5
- ER (human P-gp [4]; pHext 7 (ISO-pH), listed as doxorubicin): > 2
Compound: COc1cccc2c1C(=O)c1c(O)c3c(c(O)c1C2=O)C[C@@](O)(C(=O)CO)C[C@@H]3O[C@H]1C[C@H](N)[C@H](O)[C@H](C)O1 [Doxorubicin, doxorubicin]

- mean ERs (human P-gp [4]; over the conditions HPS, LPS, HPU, pH 7.4): greater than two
Compound: C=C[C@H]1C[N@@]2CC[C@H]1C[C@@H]2[C@@H](O)c1ccnc2ccc(OC)cc12 [Quinidine, quinidine]
